Literature values, collected in patent US10716774B1, “Pharmaceutical compositions containing isotretinoin with improved dissolution profile and enhanced stability” (Yale Pharmaceuticals LLC, priority 2018, dated 2020).

Conditions: after multiple dosing, in man

CC1=C(/C=C/C(C)=C/C=C/C(C)=C/C(=O)O)C(C)(C)CCC1=O [4-oxo-isotretinoin]
plasma concentration relative to that of the parent drug: about 4 fold
